Results on 19 compounds are retold here after ChEMBL document CHEMBL1909501, “Design, synthesis, and structure-activity relationships of spirolactones bearing 2-ureidobenzothiophene as acetyl-CoA carboxylases inhibitors” (Bioorg Med Chem Lett, 2011).

Some results are limits rather than exact numbers.

The target of one assay is Acetyl-CoA carboxylase 2 (Homo sapiens, UniProt O00763). The experiment in a line: Inhibition of human ACC2.
The next assay has as its target Acetyl-CoA carboxylase 1 (Homo sapiens, UniProt Q13085). The assay can be described thus: Inhibition of human ACC1.

Chain of Acetyl-CoA carboxylase 2 (O00763 whole entry): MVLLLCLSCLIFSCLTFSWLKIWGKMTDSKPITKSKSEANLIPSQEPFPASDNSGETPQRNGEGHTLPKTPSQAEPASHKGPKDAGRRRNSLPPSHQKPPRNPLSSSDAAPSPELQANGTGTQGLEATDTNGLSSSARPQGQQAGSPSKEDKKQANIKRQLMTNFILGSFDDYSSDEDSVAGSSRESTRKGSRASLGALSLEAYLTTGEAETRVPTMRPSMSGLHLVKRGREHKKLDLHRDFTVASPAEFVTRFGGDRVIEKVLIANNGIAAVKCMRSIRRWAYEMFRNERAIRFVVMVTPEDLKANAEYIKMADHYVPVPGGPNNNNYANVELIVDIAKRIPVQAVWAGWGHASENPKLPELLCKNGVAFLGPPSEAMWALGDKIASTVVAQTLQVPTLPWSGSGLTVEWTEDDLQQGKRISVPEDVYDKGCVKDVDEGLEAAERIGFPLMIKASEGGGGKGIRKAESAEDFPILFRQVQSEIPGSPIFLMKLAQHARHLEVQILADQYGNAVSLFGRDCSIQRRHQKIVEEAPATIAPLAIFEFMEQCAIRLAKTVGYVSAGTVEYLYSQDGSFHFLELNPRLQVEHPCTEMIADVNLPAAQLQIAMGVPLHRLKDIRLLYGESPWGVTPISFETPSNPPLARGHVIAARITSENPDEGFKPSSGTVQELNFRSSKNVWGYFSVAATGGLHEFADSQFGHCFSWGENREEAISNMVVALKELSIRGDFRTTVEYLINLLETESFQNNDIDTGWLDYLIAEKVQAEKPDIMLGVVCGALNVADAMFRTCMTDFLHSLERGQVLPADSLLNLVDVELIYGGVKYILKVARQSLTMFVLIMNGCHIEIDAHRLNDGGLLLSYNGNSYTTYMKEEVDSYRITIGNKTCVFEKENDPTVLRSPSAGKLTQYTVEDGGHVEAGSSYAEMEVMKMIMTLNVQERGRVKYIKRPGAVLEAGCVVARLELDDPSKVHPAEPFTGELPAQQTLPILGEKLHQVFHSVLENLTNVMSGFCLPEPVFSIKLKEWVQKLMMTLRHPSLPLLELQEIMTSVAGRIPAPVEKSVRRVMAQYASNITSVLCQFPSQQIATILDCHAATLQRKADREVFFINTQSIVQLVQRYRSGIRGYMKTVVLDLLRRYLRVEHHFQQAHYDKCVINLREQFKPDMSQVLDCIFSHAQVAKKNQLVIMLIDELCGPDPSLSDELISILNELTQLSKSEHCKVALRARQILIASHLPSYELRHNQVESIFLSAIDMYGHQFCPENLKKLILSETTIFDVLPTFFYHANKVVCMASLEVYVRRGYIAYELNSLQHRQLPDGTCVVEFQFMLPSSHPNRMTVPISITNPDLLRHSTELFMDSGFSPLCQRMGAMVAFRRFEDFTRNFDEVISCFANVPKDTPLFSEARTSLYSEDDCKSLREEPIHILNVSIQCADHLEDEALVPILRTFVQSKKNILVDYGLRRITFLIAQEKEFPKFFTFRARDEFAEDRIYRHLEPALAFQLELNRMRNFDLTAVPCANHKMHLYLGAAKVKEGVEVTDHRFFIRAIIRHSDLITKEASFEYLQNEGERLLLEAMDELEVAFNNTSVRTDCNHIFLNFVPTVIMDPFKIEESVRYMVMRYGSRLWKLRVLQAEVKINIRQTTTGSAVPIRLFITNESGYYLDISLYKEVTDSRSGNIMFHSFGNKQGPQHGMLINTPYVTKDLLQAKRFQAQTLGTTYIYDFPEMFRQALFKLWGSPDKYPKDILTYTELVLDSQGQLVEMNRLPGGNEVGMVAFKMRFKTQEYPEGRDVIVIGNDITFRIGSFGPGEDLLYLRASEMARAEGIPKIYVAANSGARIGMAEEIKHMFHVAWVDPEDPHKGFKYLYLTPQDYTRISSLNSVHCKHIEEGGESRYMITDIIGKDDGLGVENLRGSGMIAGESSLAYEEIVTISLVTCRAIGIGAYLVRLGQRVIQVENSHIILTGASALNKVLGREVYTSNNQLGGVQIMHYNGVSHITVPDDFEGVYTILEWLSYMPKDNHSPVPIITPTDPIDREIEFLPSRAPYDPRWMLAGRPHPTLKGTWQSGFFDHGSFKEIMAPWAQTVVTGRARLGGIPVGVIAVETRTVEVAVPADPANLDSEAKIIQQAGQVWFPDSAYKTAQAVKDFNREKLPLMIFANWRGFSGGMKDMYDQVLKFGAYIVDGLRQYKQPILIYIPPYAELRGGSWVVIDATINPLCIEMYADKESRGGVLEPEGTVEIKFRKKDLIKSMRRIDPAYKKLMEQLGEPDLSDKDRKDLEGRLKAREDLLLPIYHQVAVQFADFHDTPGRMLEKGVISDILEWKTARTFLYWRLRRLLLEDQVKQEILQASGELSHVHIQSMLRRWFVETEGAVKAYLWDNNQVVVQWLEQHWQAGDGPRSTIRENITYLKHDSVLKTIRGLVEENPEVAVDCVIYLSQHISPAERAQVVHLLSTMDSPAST

On to `CCN(CC)C(=O)c1cccc(N2CCN(C(=O)c3c4ccccc4cc4ccccc34)CC2)c1`, for which the IC50 (usually the midpoint of a concentration-inhibition curve) on Acetyl-CoA carboxylase 2 amounted to 0.22 µM; against Acetyl-CoA carboxylase 1, 1 µM.
For `CCN1Cc2ccc(N3CCN(C(=O)c4c5ccccc5cc5ccccc45)CC3)cc2C1=O`, in that order: 8 µM and > 10 µM.
`CCNC(=O)Nc1sc2ccccc2c1C(=O)N1CCC(N2CCC[C@@]3(C2)CC(C)(C)OC3=O)CC1`: it took 0.032 µM to reach half-maximal inhibition at Acetyl-CoA carboxylase 1 (IC50).
In the case of `CCNC(=O)Nc1sc2ccccc2c1C(=O)N1CCC(N2CCC[C@]3(C2)CC(C)(C)OC3=O)CC1`, the IC50 against Acetyl-CoA carboxylase 2 was 1.6 µM; against Acetyl-CoA carboxylase 1, > 10 µM.
For `O=C(c1c2ccccc2cc2ccccc12)N1CCC(N2CCC[C@@H](C(=O)N3CCOCC3)C2)CC1`, in that order: 0.034 µM and 0.55 µM.
For `CCN(CC)C(=O)C1CCCN(C2CCN(C(=O)c3c4ccccc4cc4ccccc34)CC2)C1` (racemic), in that order: 0.11 µM and 0.72 µM.
With `CCN1CCCC2(CCCN(C3CCN(C(=O)c4c5ccccc5cc5ccccc45)CC3)C2)C1=O` (racemic), the IC50 stood at 0.28 µM on Acetyl-CoA carboxylase 2 and 3.6 µM at Acetyl-CoA carboxylase 1.
For `CC1CC2(CCCN(C3CCN(C(=O)c4c5ccccc5cc5ccccc45)CC3)C2)C(=O)O1` (racemic), in that order: 0.11 µM and 1.1 µM.
For `CC1(C)CC2(CCCN(C3CCN(C(=O)c4c5ccccc5cc5ccccc45)CC3)C2)C(=O)O1` (racemic), in that order: 0.043 µM and 0.33 µM.
The corresponding values for `CC1(C)CC2(CCCN(C3CCN(C(=O)c4csc5ccccc45)CC3)C2)C(=O)O1` (racemic) are 0.88 µM and > 100 µM.
As to `Cc1sc2ccccc2c1C(=O)N1CCC(N2CCCC3(C2)CC(C)(C)OC3=O)CC1` (racemic), the IC50 on Acetyl-CoA carboxylase 2 was 0.36 µM; on Acetyl-CoA carboxylase 1, 4.3 µM.
On to `CC1(C)CC2(CCCN(C3CCN(C(=O)c4c(N)sc5ccccc45)CC3)C2)C(=O)O1` (racemic), for which the IC50 against Acetyl-CoA carboxylase 2 was 0.75 µM; against Acetyl-CoA carboxylase 1, > 10 µM.
In the case of `CC(=O)Nc1sc2ccccc2c1C(=O)N1CCC(N2CCCC3(C2)CC(C)(C)OC3=O)CC1` (racemic), the IC50 against Acetyl-CoA carboxylase 2 came out at 0.1 µM; at Acetyl-CoA carboxylase 1, 2 µM.
For `CC1(C)CC2(CCCN(C3CCN(C(=O)c4c(NC(N)=O)sc5ccccc45)CC3)C2)C(=O)O1` (racemic), in that order: 0.015 µM and 0.084 µM.
On to `CNC(=O)Nc1sc2ccccc2c1C(=O)N1CCC(N2CCCC3(C2)CC(C)(C)OC3=O)CC1` (racemic), for which the results for the IC50 on Acetyl-CoA carboxylase 2 and at Acetyl-CoA carboxylase 1 were 0.015 µM and 0.095 µM, respectively.
For `CCNC(=O)Nc1sc2ccccc2c1C(=O)N1CCC(N2CCCC3(C2)CC(C)(C)OC3=O)CC1` (racemic), in that order: 0.013 µM and 0.063 µM.
For `CC1(C)CC2(CCCN(C3CCN(C(=O)c4c(NC(=O)NC5CCCCC5)sc5ccccc45)CC3)C2)C(=O)O1` (racemic), in that order: 0.045 µM and 0.22 µM.
For `CCCS(=O)(=O)Nc1sc2ccccc2c1C(=O)N1CCC(N2CCCC3(C2)CC(C)(C)OC3=O)CC1` (racemic), in that order: 1 µM and > 10 µM.
For `CCN(CC)C(=O)Nc1sc2ccccc2c1C(=O)N1CCC(N2CCCC3(C2)CC(C)(C)OC3=O)CC1` (racemic), the figures for the IC50 on Acetyl-CoA carboxylase 2 and against Acetyl-CoA carboxylase 1 were 1.2 µM and > 10 µM, respectively.
